Test results published in patent US20240391900A1, “RIP1 KINASE INHIBITOR AND USE THEREOF” (SIRONAX (BEIJING) CO., LTD., priority 2021, published 2024).

Assays:
[1] = tested on: HT-29 human colon cancer cells; assay: In vitro biological activity assay: inhibition of TNFα/SmacM/Z_VAD FMK-induced programmed necrosis, CellTiter-Glo viability; assay type: cell-based; conditions: HT-29 cells, necrosis induced with TNF-α 100 ng/mL, SmacM 100 nM, Z_VAD-FMK 10 μM, overnight, cell viability by chemiluminescence
Experimental: In order to verify the inhibitory effect of the compounds of the present disclosure on programmed necrosis at the cellular level, a type of cells closely related to the RIP1 pathway, namely HT-29 human colon cancer cells, were selected. The used activation mode is a combination of tumor necrosis factor (TNFα), cysteine aspartate activator mimic (SmacM) and pan-caspase inhibitor Z_VAD FMK, and the cell viability was calculated by detecting chemiluminescence values, thus obtaining the biological activity of the compound inhibiting the programmed necrosis of cells.
Cell line: HT-29 (ATCC® HTB-38™)
• 2.1. The Growth Status of HT-29 Cells was Regularly Checked to Ensure their Normal Growth. • 2.2. McCOY's 5A culture medium containing 10% FBS was preheated in a 37° C. water bath for 30 minutes. When the culture medium was ready for use, the cell passage and inoculation was performed in a Class II safety cabinet with aseptic technique. • 2.3. In a T75 culture flask, when the growth density of cells reached the abundance of approximately 80%, the culture medium was aspirated and cells were washed twice with pre-warmed PBS. • 2.4. 2-3 mL of trypsin (Gibco, catalog number 25200-056) was added and the T75 culture flask was transferred to a 37° C. incubator. • 2.5. After 3-5 minutes, the side of the culture flask was tapped and examined under a microscope for detachment of the cells to the flask. If necessary, the cells were placed back into the incubator to wait for another 5-10 minutes until 85% of the cells were detached from each other. • 2.6. 6-9 mL of complete cell culture medium was quickly added to terminate the trypsin reaction, and then the cells were transferred to a sterile 15 mL centrifuge tube. The cells were pelleted by centrifugation at 300 g for 5-7 minutes in a centrifuge, and then the supernatant was decanted. • 2.7. The cells were resuspended in 10 mL of fresh cell culture medium and the cells were counted by using a hemocytometer. • 2.8. 3,000 cells contained in 100 μL were inoculated into each well of a sterile 96-well cell culture plate (Corning 3903) and cultured overnight at 37° C. under 5% CO2.
• 3.1. All batches of compounds were dissolved in dimethyl sulfoxide (DMSO) to prepare a 20 mM stock. • 3.2. 3 μL of 20 mM stock of each compound was added to 27 μL of DMSO and mixed thoroughly, and then diluted at a dilution ratio of […] (20 μL compound+40 μL DMSO) until the 10-12 points ended. After the compounds were diluted, they were set aside for use. • 3.3. The cell culture plate was taken out from the incubator, washed once with PBS, and replaced with a fresh culture medium free of serum. A mixture of TNF-α (100 ng/mL), SMAC mimic (SmacM, 100 nM) and Z_VAD-FMK (10 μM) was added to induce the programmed necrosis in HT-29 cells. • 3.4. The compound dilution plate was prepared, 0.5 μL of the diluted compound was added to the corresponding 96-well plate, and mixed gently. Two duplicate wells were prepared for each compound. • 3.5. The treated 96-well plate to which the compounds had been added was placed back into the 37° C. incubator containing 5% CO2 and incubated overnight.
The luminescence cell viability detection kit was used to calculate the activity of the compound by measuring the ATP content in viable cells. • 4.1. The CellTiter-Glo® buffer and dry powdered substrate were equilibrated to room temperature before use. • 4.2. The CellTiter-Glo® substrate was resuspended with Cell Titer-Glo® buffer, then homogeneously mixed by gently vortexing. • 4.3. The cell culture plate was taken out and equilibrated at room temperature for 10 minutes (usually not suitable if more than 30 minutes). • 4.4. 20 μL of enzyme/substrate mixture was added into the 96-well assay plate with a multi-channel pipettor. • 4.5. The 96-well assay plate was placed on a shaker and the content was mixed for 2-3 minutes to promote the cell lysis. • 4.6. […]

[2] = Rapid brain distribution assay (LC-MS/MS, brain tissue/plasma ratio); assay type: in vivo; conditions: mouse, ip, CD1 mice, intraperitoneal, grouped compounds, brain tissue and plasma taken one hour after administration, read-out: B/P
Experimental: The contents in plasma and tissue samples were measured by LC-MS/MS to obtain the ratio of the concentration in the brain tissue sample to that in the plasma sample, and compounds with blood-brain penetration could be quickly screened.
• 3.1. A group of compounds (usually 3-4 compounds, the molecular weight difference between each other was greater than 5), weighing 1-2 mg of each compound, were added into the same 4 mL weighing bottle. • 3.2. A mixed solvent of 10% DMSO+20% polyethylene glycol-15-hydroxystearate+70% H2O was used to prepare each group to a volume of 1.5 mL-2 mL. • 3.3. The mixture was ultrasonically vortexed until a homogeneous solution was obtained for intraperitioneal administration.
• 4.1. Three CD1 mice were prepared for each group and weighed. • 4.2. The administration volume was 10 mL/kg, and the mice were administered intraperitoneally. • 4.3. Timing was started after administration, and plasma samples and brain tissue samples were taken one hour later. • 4.4. The brain tissue sample was weighed, and then 4 fold volume of physiological saline was added. The resulting mixture was homogenized, and frozen at −20° C. until analysis.
• 5.1. The exact molecular weight of a compound was found from the compound information table. • 5.2. The corresponding parent ions and fragment ions were found, and the mass spectrometry condition and the liquid phase (chromatography) method were optimized to find the appropriate condition and method.
• 6.1. Plasma sample (5-fold dilution): 10 μL of the plasma sample was taken, and 40 μL of the blank plasma sample and 50 μL of the corresponding blank tissue sample were added. • 6.2 Tissue sample processing: 50 μL of the tissue sample (brain, kidney, liver and the like) was taken, and 50 μL of the blank plasma sample was added. • 6.3. The above tissue sample and the diluted plasma sample were taken, and 500 μL of the internal standard solution was added to precipitate the protein. The resulting mixture was vortexed for 2 minutes, stored by freezing at −20° C. for 1 hour and centrifuged at 3800 rpm for 15 minutes at 4° C. The supernatant was taken, 5-fold diluted with 50% MeOH, and then vortexed for 2 minutes, ready for measurement.
The sample was detected by using an appropriate LC-MS/MS method.
Distribution ratio of tissue/plasma=(peak area of compound in tissue/peak area of internal standard)/(peak area of compound in plasma/peak area of internal standard)

| SMILES | EC50 [1] | Kp at 1 h [2] |
| --- | --- | --- |
| C(#Cc1cnc2cccnn12)c1cccc(-n2cc3c(n2)C(c2ccccc2)CC3)n1 (stereo not drawn) [Compound 1, 3-((6-(6-phenyl-5,6-dihydrocyclopenta[c]pyrazol-2 (4H)-yl)pyridin-2-yl)ethynyl)imidazo[1,2-b]pyridazine] | ≤ 100 nM | 0.735 |
| Nc1ncc(C#Cc2cncc(-n3nc4c(n3)C(C3CCCCC3)CC4)c2)cn1 (stereo not drawn) [Compound 2, 5-((5-(4-cyclohexyl-5,6-dihydrocyclopenta[d][1,2,3]triazol-2 (4H)-yl)pyridin-3-yl)ethynyl)pyrimidin-2-amine] | ≤ 100 nM | 0.62 |
| Nc1ncc(C#CC2CCC(n3cc4c(n3)C(c3ccccc3)CC4)C2)cn1 (stereo not drawn) [Compound 3, 5-((3-(6-phenyl-5,6-dihydrocyclopenta[c]pyrazol-2 (4H)-yl)cyclopentyl)ethynyl)pyrimidin-2-amine] | ≤ 100 nM | 3.96 |
| Cn1c(-n2cc3c(n2)C(c2ccccc2)CC3)cc(C#Cc2cnc(N)nc2)cc1=O (stereo not drawn) [Compound 4, 4-((2-aminopyrimidin-5-yl)ethynyl)-1-methyl-6-(6-phenyl-5,6-dihydrocyclopenta[c]pyrazol-2 (4H)-yl)pyridine-2 (1H)-one] | ≤ 100 nM | 1.44 |
| C(#Cc1cnc2cccnn12)c1cccc(-n2cc3c(n2)C(c2ccccc2)CC3)c1 (stereo not drawn) [Compound 5] | ≤ 100 nM | 0.75 |
| C(#Cc1cnc2cccnn12)c1cncc(-n2cc3c(n2)C(c2ccccc2)CC3)c1 (stereo not drawn) [Compound 6, 3-((5-(6-phenyl-5,6-dihydrocyclopenta[c]pyrazol-2 (4H)-yl)pyridin-3-yl)ethynyl)imidazo[1,2-b]pyridazine] | ≤ 100 nM | 1.24 |
| C(#Cc1cnc2cccnn12)c1ccnc(-n2cc3c(n2)C(c2ccccc2)CC3)n1 (stereo not drawn) [Compound 7, 3-((2-(6-phenyl-5,6-dihydrocyclopenta[c]pyrazol-2 (4H)-yl)pyrimidine-4-yl)ethynyl)imidazo[1,2-b]pyridazine] | 100 to 1000 nM | 0.12 |
| Nc1ncc(C#Cc2cc(-n3cc4c(n3)C(c3ccccc3)CC4)ncn2)cn1 (stereo not drawn) [Compound 9, 5-((6-(6-phenyl-5,6-dihydrocyclopenta[c]pyrazol-2 (4H)-yl)pyrimidine-4-yl)ethynyl)pyrimidin-2-amine] | 100 to 1000 nM | 2.85 |
| NC(=O)c1ncc(C#Cc2cncc(-n3cc4c(n3)C(c3ccccc3)CC4)c2)cn1 (stereo not drawn) [Compound 10, 5-((5-(6-phenyl-5,6-dihydrocyclopenta[c]pyrazol-2 (4H)-yl)pyridin-3-yl)ethynyl)pyrimidine-2-carboxamide] | > 1000 nM | 1.34 |
| Oc1ccc(C#Cc2cncc(-n3cc4c(n3)C(c3ccccc3)CC4)c2)nn1 (stereo not drawn) [Compound 11, 6-((5-(6-phenyl-5,6-dihydrocyclopenta[c]pyrazol-2 (4H)-yl)pyridin-3-yl)ethynyl)pyridazine-3-ol] | ≤ 100 nM | 1.23 |
| Nc1ncc(C#Cc2cncc(-n3cc4c(n3)[C@H](c3ccccc3)CC4)c2)cn1 [Compound 14] | ≤ 100 nM | 2.92 |
| C(#Cc1cnc2ccccn12)c1cccc(-n2cc3c(n2)C(c2ccccc2)CC3)c1 (stereo not drawn) [Compound 15, 3-((3-(6-phenyl-5,6-dihydrocyclopenta[c]pyrazol-2 (4H)-yl)phenyl)ethynyl)imidazo[1,2-a]pyridine] | ≤ 100 nM | 0.406 |
| Nc1ccc(C#Cc2cncc(-n3cc4c(n3)C(c3ccccc3)CC4)c2)cn1 (stereo not drawn) [Compound 16, 5-((5-(6-phenyl-5,6-dihydrocyclopenta[c]pyrazol-2 (4H)-yl)pyridin-3-yl)ethynyl)pyridine-2-amine] | ≤ 100 nM | 2.24 |
| Cc1ncc(C#Cc2cccc(-n3cc4c(n3)C(c3ccccc3)CC4)c2)n1C (stereo not drawn) [Compound 24, 2-(3-((1,2-dimethyl-iH-imidazole-5-yl)ethynyl)phenyl)-6-phenyl-2,4,5,6-tetrahydrocyclopenta[c]pyrazole] | ≤ 100 nM | 1.33 |
| Nc1ncc(C#Cc2ccnc(-n3cc4c(n3)C(c3ccccc3)CC4)c2)cn1 (stereo not drawn) [Compound 28] | ≤ 100 nM | 1.91 |
| C(#Cc1cncc(-n2cc3c(n2)C(c2ccccc2)CC3)c1)c1ccccc1 (stereo not drawn) [Compound 30, 6-phenyl-2-(5-(phenylethynyl)pyridin-3-yl)-2,4,5,6-tetrahydrocyclopenta[c]pyrazole] | > 1000 nM | 0.429 |
| Nc1ncc(C#Cc2cncc(-n3cc4c(n3)[C@H](c3ccccc3)CC4)c2)s1 [Compound 31] | ≤ 100 nM | 2.38 |
| C(#Cc1cccc(-n2cc3c(n2)C(c2ccccc2)CC3)c1)c1cccnc1 (stereo not drawn) [Compound 32, 6-phenyl-2-(3-(pyridin-3-ethynyl)phenyl)-2,4,5,6-tetrahydrocyclopenta[c]pyrazole] | ≤ 100 nM | 1.27 |
| COc1ccc(C#Cc2cccc(-n3cc4c(n3)C(c3ccccc3)CC4)c2)cn1 (stereo not drawn) [Compound 33, 2-(3-((6-methoxypyridin-3-yl)ethynyl)phenyl)-6-phenyl-2,4,5,6-tetrahydrocyclopenta[c]pyrazole] | ≤ 100 nM | 0.563 |
| Nc1ncc(C#Cc2cccc(-n3cc4c(n3)C(c3ccccc3)CC4)c2)cn1 (stereo not drawn) [Compound 36, 5-((3-(6-phenyl-5,6-dihydrocyclopenta[c]pyrazol-2 (4H)-yl)phenyl)ethynyl)pyrimidin-2-amine] | ≤ 100 nM | 3.62 |
| C(#Cc1cnc2cccnn12)c1cc(-n2cc3c(n2)C(c2ccccc2)CC3)ccn1 (stereo not drawn) [Compound 37] | ≤ 100 nM | 1.06 |
| Nc1ncc(C#Cc2cncc(-n3cc4c(n3)C(c3ccccc3)CC4)c2)cn1 (stereo not drawn) [Compound 38] | ≤ 100 nM | 2.46 |
| Nc1ncc(C#Cc2cncc(-n3nc4c(c3Cl)CCC4c3ccccc3)c2)cn1 (stereo not drawn) [Compound 39] | ≤ 100 nM | 2.07 |
| Cc1c2c(nn1-c1cncc(C#Cc3cnc(N)nc3)c1)C(c1ccccc1)CC2 (stereo not drawn) [Compound 40] | ≤ 100 nM | 1.61 |
